The term IC50 denotes the concentration that inhibits the measured activity by half.

The values below come from patent US20240409585A1, “MACROCYCLIC IMMUNOMODULATORS” (priority 2021, published 2024).

Bridge positions count the residues as written; N and C are the ends. Square brackets hold non-standard residues; d marks the D form. Peptide text beside a SMILES is read from it. * marks the point of attachment. ξ: configuration not given here. Phe(4-COOH) = N[C@@H](Cc1ccc(C(=O)O)cc1)C(=O)O; Phe(4-CH2NH2) = NCc1ccc(C[C@H](N)C(=O)O)cc1; Bip = N[C@@H](Cc1ccc(-c2ccccc2)cc1)C(=O)O; Phe(3-F) = N[C@@H](Cc1cccc(F)c1)C(=O)O; Phe(3-Me) = Cc1cccc(C[C@H](N)C(=O)O)c1; Val(3-OH) = CC(C)(O)[C@H](N)C(=O)O; 4Pal = N[C@@H](Cc1ccncc1)C(=O)O; Cha = N[C@@H](CC1CCCCC1)C(=O)O; Cit = NC(=O)NCCC[C@H](N)C(=O)O; Ile(3ξ) = CCC(C)[C@H](N)C(=O)O; Thr(3ξ) = CC(O)[C@H](N)C(=O)O; Carboxymethyl = O=C(O)C*; NMeA = CN[C@@H](C)C(=O)O; Dab = NCC[C@H](N)C(=O)O; Dap = NC[C@H](N)C(=O)O

T1 sequence (Q15116 25-288): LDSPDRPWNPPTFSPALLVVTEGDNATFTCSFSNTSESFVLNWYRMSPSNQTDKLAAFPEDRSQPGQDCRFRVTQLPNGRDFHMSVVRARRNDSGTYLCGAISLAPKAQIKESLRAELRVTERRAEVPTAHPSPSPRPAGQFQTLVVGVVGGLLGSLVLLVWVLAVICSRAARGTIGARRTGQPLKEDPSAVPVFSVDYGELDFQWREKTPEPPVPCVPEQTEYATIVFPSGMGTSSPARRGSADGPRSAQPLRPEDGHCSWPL

This experiment addresses T1, PE-labeled human PD-L1-Ig binding to Jurkat cell line over-expressing human PD-1 (Jurkat-PD-1) (Homo sapiens, UniProt Q15116).
T1 construct: expressed in transfected cells; host or cells: Jurkat
The experiment can be described thus: Jurkat-PD-1 Cell Binding High-Content Screening Assay (CBA): Method 1. The note with it: Jurkat-hPD-1 cells, PE-labeled PD-L1-Ig 20 nM final; read-out: Jurkat HPDL1 PD1 IC50 (uM) (Method 1).
For the compound `CCNC(=O)[C@H](CCN)NC(=O)[C@@H]1CSCC(=O)N[C@@H](Cc2ccncc2)C(=O)N[C@@H](Cc2ccc(OCC(=O)O)cc2)C(=O)N[C@@H](CC(=O)O)C(=O)N[C@@H](Cc2cccc(C)c2)C(=O)N[C@@H](Cc2cccc(F)c2)C(=O)N[C@@H](Cc2ccc(-c3ccccc3)cc2)C(=O)N[C@@H](C(C)C)C(=O)N(C)[C@@H](C)C(=O)N[C@H](CC(C)C)C(=O)N[C@@H](CCN)C(=O)N[C@@H](CC2CCCCC2)C(=O)N[C@@H](C(C)(C)O)C(=O)N[C@@H](CO)C(=O)N1` [Compound 1838] ({CH2CO}-[4Pal]Y(Carboxymethyl)D[Phe(3-Me)][Phe(3-F)][Bip]V[NMeA][dL][Dab][Cha][Val(3-OH)]SC[Dab]-NHEt; thioether N-14), the IC50 stood at 0.01 µM. The value for `CC(C)C[C@H]1NC(=O)[C@H](C)N(C)C(=O)[C@H](Cc2ccc(CN)cc2)NC(=O)[C@H](Cc2ccc(-c3ccccc3)cc2)NC(=O)[C@H](C(C)C)NC(=O)[C@H](Cc2c[nH]c3ccccc23)NC(=O)[C@H](CC(=O)O)NC(=O)[C@H](Cc2ccc(O)cc2)NC(=O)[C@H](Cc2ccncc2)NC(=O)CSC[C@@H](C(=O)N[C@@H](C)C(N)=O)NC(=O)[C@H](C(C)O)NC(=O)[C@H](C(C)C)NC(=O)[C@H](CC2CCCCC2)NC(=O)[C@H](CC(N)=O)NC1=O` (stereo partly drawn) [Compound 2048] ({CH2CO}-[4Pal]YDWV[Bip][Phe(4-CH2NH2)][NMeA][dL]N[Cha]V[Thr(3ξ)]CA-NH2; thioether N-14) was 0.03 µM; that for `Cc1cccc(C[C@@H]2NC(=O)[C@H](Cc3ccncc3)NC(=O)CSC[C@@H](C(=O)NCC(N)=O)NC(=O)[C@H](CO)NC(=O)[C@H](C(C)C)NC(=O)[C@H](CC(C)C)NC(=O)[C@H](CC(N)=O)NC(=O)[C@@H](CC(C)C)NC(=O)[C@H](C)N(C)C(=O)[C@H](C(C)C)NC(=O)[C@H](Cc3ccc(-c4ccccc4)cc3)NC(=O)[C@H](CC(C)C)NC(=O)[C@H](Cc3c[nH]c4ccccc34)NC(=O)[C@H](CC(=O)O)NC2=O)c1` [Compound 1519] ({CH2CO}-[4Pal][Phe(3-Me)]DWL[Bip]V[NMeA][dL]NLVSCG-NH2; thioether N-14) was 0.02 µM. In the case of `CCC(C)[C@@H]1NC(=O)[C@H](Cc2ccc(-c3ccccc3)cc2)NC(=O)[C@H](CC(C)C)NC(=O)[C@H](Cc2c[nH]c3ccccc23)NC(=O)[C@H](CC(=O)O)NC(=O)[C@H](Cc2ccc(C(=O)O)cc2)NC(=O)[C@H](Cc2ccc(OCC(=O)O)cc2)NC(=O)CSC[C@@H](C(=O)N[C@@H](CO)C(N)=O)NC(=O)[C@H](CCC(=O)O)NC(=O)[C@H](C(C)C)NC(=O)[C@H](CC2CCCCC2)NC(=O)[C@H](CCN)NC(=O)[C@@H](CC(C)C)NC(=O)[C@H](C)N(C)C1=O` (stereo partly drawn) [Compound 1930] ({CH2CO}-Y(Carboxymethyl)[Phe(4-COOH)]DWL[Bip][Ile(3ξ)][NMeA][dL][Dab][Cha]VECS-NH2; thioether N-14), the IC50 was 0.02 µM. As for `Cc1cccc(C[C@@H]2NC(=O)[C@H](CC(=O)O)NC(=O)[C@H](Cc3ccncc3)NC(=O)[C@H](CN)NC(=O)CSC[C@@H](C(=O)N[C@@H](C)C(N)=O)NC(=O)[C@H]([C@@H](C)O)NC(=O)[C@H](C(C)C)NC(=O)[C@H](CC(C)C)NC(=O)[C@H](CCN)NC(=O)[C@@H](CC(C)C)NC(=O)[C@H](C)N(C)C(=O)[C@H](C(C)C)NC(=O)[C@H](Cc3ccc(-c4ccccc4)cc3)NC(=O)[C@H](C(C)C)NC2=O)c1` [Compound 1543] ({CH2CO}-[Dap][4Pal]D[Phe(3-Me)]V[Bip]V[NMeA][dL][Dab]LVTCA-NH2; thioether N-14), the IC50 was 0.01 µM. The value for `CC(C)C[C@@H]1NC(=O)[C@H](CCN)NC(=O)[C@@H](CC(C)C)NC(=O)[C@H](C)N(C)C(=O)[C@H](CCC(=O)O)NC(=O)[C@H](Cc2ccc(-c3ccccc3)cc2)NC(=O)[C@H](C(C)C)NC(=O)[C@H](Cc2c[nH]c3ccccc23)NC(=O)[C@H](CC(=O)O)NC(=O)[C@H](Cc2ccc(C(=O)O)cc2)NC(=O)[C@H](CC(N)=O)NC(=O)CSC[C@@H](C(=O)N[C@@H](C)C(N)=O)NC(=O)[C@H]([C@@H](C)O)NC(=O)[C@H](C(C)C)NC1=O` [Compound 1389] ({CH2CO}-N[Phe(4-COOH)]DWV[Bip]E[NMeA][dL][Dab]LVTCA-NH2; thioether N-14) was 0.03 µM. The value for `CC(C)C[C@@H]1NC(=O)[C@H](CCN)NC(=O)[C@@H](CC(C)C)NC(=O)[C@H](C)N(C)C(=O)[C@H](CCCNC(N)=O)NC(=O)[C@H](Cc2ccc(-c3ccccc3)cc2)NC(=O)[C@H](C(C)C)NC(=O)[C@H](Cc2c[nH]c3ccccc23)NC(=O)[C@H](CC(=O)O)NC(=O)[C@H](Cc2ccc(O)cc2)NC(=O)[C@H](CC(N)=O)NC(=O)CSC[C@@H](C(=O)N[C@@H](CCC(=O)O)C(N)=O)NC(=O)[C@H](CO)NC(=O)[C@H](C(C)C)NC1=O` [Compound 1233] ({CH2CO}-NYDWV[Bip][Cit][NMeA][dL][Dab]LVSCE-NH2; thioether N-14) was 0.05 µM. Consider `Cc1cccc(C[C@@H]2NC(=O)[C@H](CC(=O)O)NC(=O)[C@H](Cc3ccc(OCC(=O)O)cc3)NC(=O)[C@H](Cc3ccncc3)NC(=O)CSC[C@@H](C(=O)N[C@@H](CCN)C(N)=O)NC(=O)[C@H](CC(=O)O)NC(=O)[C@H](C(C)(C)O)NC(=O)[C@H](CC3CCCCC3)NC(=O)[C@H](CCN)NC(=O)[C@@H](CC(C)C)NC(=O)[C@H](C)N(C)C(=O)[C@H](Cc3ccc(OCC(=O)O)cc3)NC(=O)[C@H](Cc3ccc(-c4ccccc4)cc3)NC(=O)[C@H](Cc3ccc(OCC(=O)O)cc3)NC2=O)c1` [Compound 2190] ({CH2CO}-[4Pal]Y(Carboxymethyl)D[Phe(3-Me)]Y(Carboxymethyl)[Bip]Y(Carboxymethyl)[NMeA][dL][Dab][Cha][Val(3-OH)]DC[Dab]-NH2; thioether N-14), for which the IC50 turned out to be 0.03 µM. The value for `Cc1cccc(C[C@@H]2NC(=O)[C@H](CC(=O)O)NC(=O)[C@H](Cc3ccc(OCC(=O)O)cc3)NC(=O)[C@H](CN)NC(=O)CSC[C@@H](C(N)=O)NC(=O)[C@H](CCC(=O)O)NC(=O)[C@H](C(C)C)NC(=O)[C@H](CC3CCCCC3)NC(=O)[C@H](CCN)NC(=O)[C@@H](CC(C)C)NC(=O)[C@H](C)N(C)C(=O)[C@H](Cc3ccc(OCC(=O)O)cc3)NC(=O)[C@H](Cc3ccc(-c4ccccc4)cc3)NC(=O)[C@H](Cc3ccc(OCC(=O)O)cc3)NC2=O)c1` [Compound 1651] ({CH2CO}-[Dap]Y(Carboxymethyl)D[Phe(3-Me)]Y(Carboxymethyl)[Bip]Y(Carboxymethyl)[NMeA][dL][Dab][Cha]VEC-NH2; thioether N-14) was 0.1 µM. The value for `Cc1cccc(C[C@@H]2NC(=O)[C@H](CC(=O)O)NC(=O)[C@H](Cc3ccc(C(=O)O)cc3)NC(=O)[C@H](Cc3ccc(OCC(=O)O)cc3)NC(=O)CSC[C@@H](C(N)=O)NC(=O)[C@H](CO)NC(=O)[C@H](C(C)C)NC(=O)[C@H](CC(C)C)NC(=O)[C@H](CC(N)=O)NC(=O)[C@@H](CC(C)C)NC(=O)[C@H](C)N(C)C(=O)[C@H](C(C)C)NC(=O)[C@H](Cc3ccc(-c4ccccc4)cc3)NC(=O)[C@H](CC(C)C)NC2=O)c1` [Compound 1596] ({CH2CO}-Y(Carboxymethyl)[Phe(4-COOH)]D[Phe(3-Me)]L[Bip]V[NMeA][dL]NLVSC-NH2; thioether N-14) was 0.02 µM.
